Test results reported in patent US20070275961A1, “Triazolo ' 1, 5-A ! Pyrimidines and Their Use in Medicine” (VERNALIS (CAMBRIDGE) LIMITED., priority 2003, published 2007).
Where two headings read alike, the source gives them in different places.

Key:
Format in all cases: biochemical
[1] = target: CDK2 enzyme, complexed with cyclin A (Homo sapiens, UniProt P24941); assay: CDK2 cyclin dependent kinase assay, phosphorylation of synthetic peptide […] (33P-ATP filtration); conditions: 0.1 mM ATP
Protocol: (§1) The assay mixture containing the inhibitor and CDK2 enzyme, complexed with cyclin A (0.4 U/ml) was mixed together in a microtiter plate in a final volume of 50 μl and incubated for 40 min at 30° C. The assay mixture contained 0.1 mM unlabeled ATP, 0.01 μCi/μl ^33P-γ-ATP, 0.03 mM peptide, 0.1 mg/ml BSA, 7.5 mM magnesium acetate, 50 mM HEPES-NaOH, pH 7.5. The reaction was stopped by adding 50 μl of 50 mM phosphoric acid. 90 μl of the mixture were transferred to a pre-wetted 96-well Multiscreen MAPHNOB filtration plate (Millipore) and filtered on a vacuum manifold. The filter plate was washed with three successive additions of 200 μl 50 mM phosphoric acid and then with 100 μl methanol. The filtration plate was dried for 10 min at 65° C., scintillant added and phosphorylated peptide quantified in a scintillation counter (Trilux, PerkinElmer).
HEPES is N-[2-hydroxyethyl]piperazine-N′-[2-ethanesulfonic acid]. BSA is bovine serum albumin.

PDK1 enzyme = target: T1, PDK1 enzyme (Homo sapiens, UniProt O15530); assay: PDK1 3'-phosphoinositide-dependent kinase assay, phosphorylation of synthetic peptide (33P-ATP filtration); conditions: 0.01 mM ATP, read-out: PDK1 IC50
T1 sequence (O15530 1-556): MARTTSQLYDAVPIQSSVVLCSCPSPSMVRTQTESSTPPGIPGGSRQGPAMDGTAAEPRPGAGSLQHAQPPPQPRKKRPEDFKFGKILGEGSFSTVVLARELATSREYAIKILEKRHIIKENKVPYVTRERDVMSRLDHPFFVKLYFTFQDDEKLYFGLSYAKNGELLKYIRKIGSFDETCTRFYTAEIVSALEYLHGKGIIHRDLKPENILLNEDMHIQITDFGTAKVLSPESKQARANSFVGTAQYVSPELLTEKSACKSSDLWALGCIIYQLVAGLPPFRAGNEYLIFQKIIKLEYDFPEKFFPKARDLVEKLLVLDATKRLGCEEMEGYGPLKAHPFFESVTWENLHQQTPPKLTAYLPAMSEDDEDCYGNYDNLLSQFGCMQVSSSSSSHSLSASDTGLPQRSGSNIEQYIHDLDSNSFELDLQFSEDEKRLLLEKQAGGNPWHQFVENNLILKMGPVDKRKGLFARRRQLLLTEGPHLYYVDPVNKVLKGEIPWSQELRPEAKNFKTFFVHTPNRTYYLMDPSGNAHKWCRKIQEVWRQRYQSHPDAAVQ
Protocol: as §1, with “and PDK1 enzyme” for “and CDK2 enzyme, complexed with cyclin A (0.4 U/ml)”, “for 60” for “for 40”, “contained 0.01” for “contained 0.1”, “^33P-γ-ATP, 0.075” for “^33P-γ-ATP, 0.03”, “acetate, 0.05 M Tris.HCl,” for “acetate, 50 mM HEPES-NaOH,”, “pH 7.5, 0.5% 2-mercaptoethanol.” for “pH 7.5.”

Chk1 = target: T2, Chk1 (Homo sapiens, UniProt O14757); assay: Chk1 kinase assay, phosphorylation of Chktide (33P-ATP filtration); conditions: 0.01 mM ATP, read-out: Chk1 IC50
T2 sequence (O14757 1-476): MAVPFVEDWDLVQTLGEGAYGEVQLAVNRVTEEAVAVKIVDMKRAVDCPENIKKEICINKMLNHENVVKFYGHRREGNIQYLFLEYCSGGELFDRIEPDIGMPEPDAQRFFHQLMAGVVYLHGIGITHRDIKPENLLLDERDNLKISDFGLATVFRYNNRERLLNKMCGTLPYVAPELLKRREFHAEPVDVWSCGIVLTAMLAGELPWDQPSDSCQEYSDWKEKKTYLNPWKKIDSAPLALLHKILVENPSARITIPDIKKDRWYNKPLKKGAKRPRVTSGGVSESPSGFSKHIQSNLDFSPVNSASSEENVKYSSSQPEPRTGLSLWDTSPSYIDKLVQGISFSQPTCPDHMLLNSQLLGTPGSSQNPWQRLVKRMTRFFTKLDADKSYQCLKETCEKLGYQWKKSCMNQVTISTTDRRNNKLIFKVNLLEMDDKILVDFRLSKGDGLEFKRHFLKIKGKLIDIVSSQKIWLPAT
Protocol: Assays for the Chk1 kinase activity were carried out by monitoring the phosphorylation of a synthetic peptide Chktide with the amino acid sequence, […]. The assay mixture containing the inhibitor and Chk1 enzyme was mixed together in a microtiter plate in a final volume of 50 μl and incubated for 40 minutes at 30° C.
The assay mixture contained 0.01 mM unlabeled ATP, 0.5 μCi ^33P-γ-ATP, 30 μM Chktide, 0.1 mg/ml BSA, 50 mM Hepes-NaOH pH 7.5 and 11 nM GST-Chk1 enzyme. The reaction was stopped by adding 50 μl of 50 mM phosphoric acid. 90 μl of the mixture was transferred to a pre-wetted 96-well Multiscreen MAPHNOB filtration plate (Millipore) and filtered on a vacuum manifold. The filter plate was washed with three successive additions of 200 μl 50 mM phosphoric acid and then with 100 μl methanol. The filtration plate was dried for 10 min at 65° C., scintillant added and phosphorylated peptide quantified in a scintillation counter (Trilux, PerkinElmer).

Row | IC50 ([1]; Table 1) [µM] | IC50 (PDK1 enzyme; Table 1) [µM] | IC50 (Chk1; Table 1) [µM] | IC50 ([1]; Table 2) [µM] | IC50 (PDK1 enzyme; Table 2) [µM] | IC50 (Chk1; Table 2) [µM] | SMILES
1 | 0.82 | > 200 | > 200 |  |  |  | CS(=O)(=O)c1ccc(Nc2cc(Cl)nc3ncnn23)cc1 [Example 18]
2 | 0.99 | > 200 | > 200 |  |  |  | NS(=O)(=O)c1ccc(Nc2cc(N3CCC(O)CC3)nc3ncnn23)cc1 [Example 19]
3 | 3.33 | > 200 | > 200 |  |  |  | NS(=O)(=O)c1ccc(Nc2cc(N3CCCC3)nc3ncnn23)cc1 [Example 20]
4 | 59 | > 200 | > 200 |  |  |  | CN(C)c1ccc(Nc2cc(Cl)nc3ncnn23)cc1 [Example 21]
5 | 36.7 | > 200 | > 200 |  |  |  | NC(=O)c1cccc(Nc2cc(Cl)nc3ncnn23)c1 [Example 22]
6 | 0.33 | > 200 | > 200 |  |  |  | NS(=O)(=O)c1ccc(Nc2cc(N3CCCC(CO)C3)nc3ncnn23)cc1 (stereo not drawn) [Example 23]
7 | 15.7 | > 200 | > 200 |  |  |  | NS(=O)(=O)c1ccc(Nc2cc(N3CCOCC3)nc3ncnn23)cc1 [Example 24]
8 | 93.2 | > 200 | > 200 |  |  |  | O=C(O)c1ccc(Nc2cc(Cl)nc3ncnn23)cc1 [Example 25]
9 | > 200 | > 200 | 105 |  |  |  | CN(C)Cc1ccccc1-c1cc(Nc2cc(Cl)ccc2O)n2ncnc2n1 [Example 26]
10 | 14.3 | > 200 | > 200 |  |  |  | NS(=O)(=O)c1ccc(Nc2cc(-c3cccc(C(=O)O)c3)nc3ncnn23)cc1 [Example 27]
11 | 18.6 | > 200 | > 200 |  |  |  | CCN(CC)CCNC(=O)c1ccc(Nc2cc(-c3cccc(C#N)c3)nc3ncnn23)cc1 [Example 28]
12 | 57.5 | > 200 | > 200 |  |  |  | Cc1cccc(-c2cc(Nc3ccc(C#N)cc3)n3ncnc3n2)c1 [Example 29]
13 | 33 | > 200 | 72 |  |  |  | NS(=O)(=O)c1ccc(Nc2ccnc3ncnn23)cc1 [Example 30]
14 | 4.91 | > 200 | > 200 |  |  |  | CC(C)C(CO)Nc1cc(Nc2ccc(S(N)(=O)=O)cc2)n2ncnc2n1 (stereo not drawn) [Example 31]
15 | 31.6 | > 200 | > 200 |  |  |  | Oc1ccc(Cl)cc1Nc1cc(Cl)nc2ncnn12 [Example 32]
16 | 29 | > 200 | 23.9 |  |  |  | Clc1cccc(-c2cc(Nc3ccc4c(c3)OCO4)n3ncnc3n2)c1 [Example 33]
17 | 0.62 | > 200 | > 200 |  |  |  | NS(=O)(=O)c1ccc(Nc2cc(N3CCCCC3)nc3ncnn23)cc1 [Example 34]
18 | 1.72 | 48 | 40.5 |  |  |  | NS(=O)(=O)c1ccc(Nc2cc(Nc3cccc(Cl)c3)nc3ncnn23)cc1 [Example 35]
19 | 15 | > 200 | > 200 |  |  |  | NS(=O)(=O)c1ccc(CNc2cc(Cl)nc3ncnn23)cc1 [Example 38]
20 | 42.8 | > 200 | > 200 |  |  |  | CCN(CC)CCNC(=O)c1ccc(Nc2cc(Cl)nc3ncnn23)cc1 [Example 39]
21 | 8.29 | > 200 | > 200 |  |  |  | COc1ccc(Nc2cc(-c3cccc(Cl)c3)nc3ncnn23)cn1 [Example 40]

Row | IC50 ([1]; Table 1) [µM] | IC50 (PDK1 enzyme; Table 1) [µM] | IC50 (Chk1; Table 1) [µM] | IC50 ([1]; Table 2) [µM] | IC50 (PDK1 enzyme; Table 2) [µM] | IC50 (Chk1; Table 2) [µM] | SMILES
22 | 61.4 | > 200 | > 200 |  |  |  | N#Cc1ccc(Nc2cc(Cl)nc3ncnn23)cc1 [Example 41]
23 | 11.8 | > 200 | > 200 |  |  |  | COc1ccc(Nc2cc(Cl)nc3ncnn23)cn1 [Example 42]
24 | > 200 | > 200 | > 200 |  |  |  | O[C@H]1CC[C@H](Nc2cc(Cl)nc3ncnn23)CC1 [Example 43]
25 | 60.3 | > 200 | > 200 |  |  |  | NC(=O)c1sccc1Nc1cc(-c2ccsc2)nc2ncnn12 [Example 44]
26 | 12.3 | > 200 | > 200 |  |  |  | NC(=O)c1ccc(Nc2cc(-c3cccc(F)c3)nc3ncnn23)cc1 [Example 45]
27 | > 200 | > 200 | > 200 |  |  |  | NC(=O)c1sccc1Nc1cc(Cl)nc2ncnn12 [Example 47]
28 | 13.5 | > 200 | > 200 |  |  |  | Clc1cc(Nc2ccc3cn[nH]c3c2)n2ncnc2n1 [Example 48]
29 | 24.1 | > 200 | > 200 |  |  |  | NC(=O)c1ccc(Nc2cc(Cl)nc3ncnn23)cc1 [Example 49]
30 | 31.9 | > 200 | > 200 |  |  |  | CCOC(=O)c1ccc(Nc2cc(-c3cccc(O)c3)nc3ncnn23)cc1 [Example 50]
31 | 40.9 | > 200 | > 200 |  |  |  | NS(=O)(=O)c1cccc(Nc2cc(Cl)nc3ncnn23)c1 [Example 52]
32 | > 200 | > 200 | > 200 |  |  |  | CCOC(=O)c1ccc(Nc2cc(Cl)nc3ncnn23)cc1 [Example 53]
33 | > 200 | > 200 | > 200 |  |  |  | COc1ccc(-c2cc(Nc3cccc(Cl)c3)n3ncnc3n2)nc1 [Example 54]
34 | 43.3 | > 200 | > 200 |  |  |  | Clc1cc(NCc2ccncc2)n2ncnc2n1 [Example 56]
35 |  |  |  | 18.7 | > 200 | > 200 | NS(=O)(=O)c1ccc(CNc2cc(OCC3CCCCC3)nc3ncnn23)cc1 [Example 57]
36 |  |  |  | 13.6 | > 200 | > 200 | NS(=O)(=O)c1ccc(Nc2cc(NCc3ccccc3)nc3ncnn23)cc1 [Example 58]
37 |  |  |  | 3.86 | 118 | 117 | NS(=O)(=O)c1ccc(Nc2cc(NCC3CCCCC3)nc3ncnn23)cc1 [Example 59]
38 |  |  |  | 1.91 | > 200 | > 200 | Oc1ccccc1-c1cc(Nc2ccc3cn[nH]c3c2)n2ncnc2n1 [Example 60]
39 |  |  |  | > 200 | > 200 | > 200 | C[Si](C)(C)CCOCn1ncc2ccc(Nc3cc(Cl)nc4ncnn34)cc21 [Example 61]
40 |  |  |  | 13 | > 200 | > 200 | CCOc1cc(Nc2ccc(S(N)(=O)=O)cc2)n2ncnc2n1 [Example 62]
41 |  |  |  | 46.2 | > 200 | > 200 | CN1CCN(c2cc(Nc3ccc(S(C)(=O)=O)cc3)n3ncnc3n2)CC1 [Example 63]
